Results reported in ChEMBL document CHEMBL3885881, “DrugMatrix”.
Several values for one entry are separate records, joined by “and”; a condition that tells them apart may be missing. Equal entries are not always repeated.

Organism: Rattus norvegicus
Assay: DrugMatrix - Regimen: Daily Repeat
Assay type: toxicity, organism-based, Sprague-Dawley
Set-up: regimen Daily Repeat, gender Male, age 6-8 weeks
Conditions: in vivo, ip, route intraperitoneal, vehicle 100 % SALINE; for ABSOLUTE BASOPHIL / ABSOLUTE EOSINOPHIL / ABSOLUTE LYMPHOCYTE / ABSOLUTE MONOCYTE / ABSOLUTE SEGMENTED NEUTROPHIL / BASOPHIL / EOSINOPHIL / ERYTHROCYTE COUNT / HEMATOCRIT / HEMOGLOBIN / LEUKOCYTE COUNT / LYMPHOCYTE / MEAN CORPUSCULAR HEMOGLOBIN / MEAN CORPUSCULAR HEMOGLOBIN CONCENTRATION / MEAN CORPUSCULAR VOLUME / MONOCYTE / NEUTROPHIL / PLATELET COUNT: tissue Blood; for ALANINE AMINOTRANSFERASE / ALBUMIN / ALKALINE PHOSPHATASE / ASPARTATE AMINOTRANSFERASE / BLOOD UREA NITROGEN / CARBON DIOXIDE / CHLORIDE / CHOLESTEROL / CREATINE PHOSPHOKINASE / CREATININE / GLUCOSE / LACTATE DEHYDROGENASE / LIPASE / PHOSPHORUS / POTASSIUM / SODIUM / TOTAL BILIRUBIN / TOTAL PROTEIN / URIC ACID: tissue Plasma
[1] = 0 mg/kg, 120 h, dose level Control, time 5 day
[2] = 0 mg/kg, […], dose level Control, time 14 day
[3] = 0 mg/kg, […], dose level Control, time 28 day
[4] = 40 mg/kg, 120 h, dose level High, time 5 day
[5] = 40 mg/kg, […], dose level High, time 14 day
[6] = 40 mg/kg, […], dose level High, time 28 day

## NC[C@H]1O[C@H](O[C@H]2[C@H](O)[C@@H](O[C@H]3O[C@H](CO)[C@@H](O)[C@H](N)[C@H]3O)[C@H](N)C[C@@H]2N)[C@H](N)C[C@@H]1O [TOBRAMYCIN]
[1]
  ABSOLUTE BASOPHIL: 32 cells/µL
  ABSOLUTE EOSINOPHIL: 110 cells/µL
  ABSOLUTE LYMPHOCYTE: 6630 cells/µL
  ABSOLUTE MONOCYTE: 140 cells/µL
  ABSOLUTE SEGMENTED NEUTROPHIL: 1170 cells/µL
  BASOPHIL: 0.38% and 0.35%
  EOSINOPHIL: 1.28% and 0.62%
  ERYTHROCYTE COUNT: 7.45 x10E6/uL and 7.26 x10E6/uL
  HEMATOCRIT: 45.74% and 47.97%
  HEMOGLOBIN: 14.72 G/DL and 15.38 G/DL
  LEUKOCYTE COUNT: 8.11 x10E3/uL and 8.68 x10E3/uL
  LYMPHOCYTE: 81.3% and 86.77%
  MEAN CORPUSCULAR HEMOGLOBIN: 19.76 pg and 21.18 pg
  MEAN CORPUSCULAR HEMOGLOBIN CONCENTRATION: 32.16 G/DL and 32.05 G/DL
  MEAN CORPUSCULAR VOLUME: 61.38 fL and 66.15 fL
  MONOCYTE: 1.76% and 1.57%
  NEUTROPHIL: 14.9% and 9.53%
  PLATELET COUNT: 1322.4 x10E3/uL and 1786 x10E3/uL
  ALANINE AMINOTRANSFERASE: 25.8 u/L and 20.5 u/L
  ALBUMIN: 3.64 G/DL and 4.35 G/DL
  ALKALINE PHOSPHATASE: 233.6 u/L and 300 u/L
  ASPARTATE AMINOTRANSFERASE: 81.4 u/L and 86.75 u/L
  BLOOD UREA NITROGEN: 14.4 mg/dL and 17 mg/dL
  CARBON DIOXIDE: 29 mmol/L
  CHLORIDE: 105.6 MEQ/L and 106.25 MEQ/L
  CHOLESTEROL: 69.2 mg/dL and 51.25 mg/dL
  CREATINE PHOSPHOKINASE: 384.75 u/L
  CREATININE: 0.56 mg/dL and 0.47 mg/dL
  GLUCOSE: 125.4 mg/dL and 128.75 mg/dL
  LACTATE DEHYDROGENASE: 105.4 u/L and 145 u/L
  LIPASE: 22.4 u/L and 13.25 u/L
  PHOSPHORUS: 11.48 mg/dL and 11.8 mg/dL
  POTASSIUM: 5.52 MEQ/L and 6.58 MEQ/L
  SODIUM: 147 MEQ/L and 151 MEQ/L
  TOTAL BILIRUBIN: 0.2 mg/dL and 0.33 mg/dL
  TOTAL PROTEIN: 6.1 G/DL and 6.53 G/DL
  URIC ACID: 1.06 mg/dL and 1.95 mg/dL
[2]
  ABSOLUTE BASOPHIL: 130 cells/µL
  ABSOLUTE EOSINOPHIL: 140 cells/µL
  ABSOLUTE LYMPHOCYTE: 13500 cells/µL
  ABSOLUTE MONOCYTE: 400 cells/µL
  ABSOLUTE SEGMENTED NEUTROPHIL: 2330 cells/µL
  HEMATOCRIT: 45.98%
  CARBON DIOXIDE: 25 mmol/L
[3]
  ABSOLUTE BASOPHIL: 91 cells/µL
  ABSOLUTE EOSINOPHIL: 110 cells/µL
  ABSOLUTE LYMPHOCYTE: 9910 cells/µL
  ABSOLUTE MONOCYTE: 210 cells/µL
  ABSOLUTE SEGMENTED NEUTROPHIL: 1560 cells/µL
  BASOPHIL: 0.77%
  EOSINOPHIL: 0.92%
  ERYTHROCYTE COUNT: 8.21 x10E6/uL
  HEMATOCRIT: 47.53%
  HEMOGLOBIN: 15.65 G/DL
  LEUKOCYTE COUNT: 11.91 x10E3/uL
  LYMPHOCYTE: 83.34%
  MEAN CORPUSCULAR HEMOGLOBIN: 19.07 pg
  MEAN CORPUSCULAR HEMOGLOBIN CONCENTRATION: 32.93 G/DL
  MEAN CORPUSCULAR VOLUME: 57.9 fL
  MONOCYTE: 1.68%
  NEUTROPHIL: 12.97%
  PLATELET COUNT: 1323.8 x10E3/uL
  ALANINE AMINOTRANSFERASE: 30 u/L
  ALBUMIN: 3.71 G/DL
  ALKALINE PHOSPHATASE: 186.8 u/L
  ASPARTATE AMINOTRANSFERASE: 78.2 u/L
  BLOOD UREA NITROGEN: 14.2 mg/dL
  CHLORIDE: 105.4 MEQ/L
  CHOLESTEROL: 44.9 mg/dL
  CREATINE PHOSPHOKINASE: 334.3 u/L
  CREATININE: 0.6 mg/dL
  GLUCOSE: 147.2 mg/dL
  LACTATE DEHYDROGENASE: 123.1 u/L
  LIPASE: 9.6 u/L
  PHOSPHORUS: 10.01 mg/dL
  POTASSIUM: 6.57 MEQ/L
  SODIUM: 149.5 MEQ/L
  TOTAL BILIRUBIN: 0.21 mg/dL
  TOTAL PROTEIN: 6.66 G/DL
  URIC ACID: 1.26 mg/dL
[4]
  ABSOLUTE BASOPHIL: 78 cells/µL
  ABSOLUTE EOSINOPHIL: 120 cells/µL
  ABSOLUTE LYMPHOCYTE: 8040 cells/µL
  ABSOLUTE MONOCYTE: 210 cells/µL
  ABSOLUTE SEGMENTED NEUTROPHIL: 920 cells/µL
  BASOPHIL: 0.78% and 0.42%
  EOSINOPHIL: 1.32% and 0.7%
  ERYTHROCYTE COUNT: 7.61 x10E6/uL and 7.29 x10E6/uL
  HEMATOCRIT: 45.66% and 46.27%
  HEMOGLOBIN: 15.22 G/DL and 14.92 G/DL
  LEUKOCYTE COUNT: 9.41 x10E3/uL and 6.74 x10E3/uL
  LYMPHOCYTE: 84.78% and 87.65%
  MEAN CORPUSCULAR HEMOGLOBIN: 20.04 pg and 20.48 pg
  MEAN CORPUSCULAR HEMOGLOBIN CONCENTRATION: 33.38 G/DL and 32.25 G/DL
  MEAN CORPUSCULAR VOLUME: 60.02 fL and 63.45 fL
  MONOCYTE: 2.34% and 1.52%
  NEUTROPHIL: 10.36% and 8.62%
  PLATELET COUNT: 1436.6 x10E3/uL and 1523 x10E3/uL
  ALANINE AMINOTRANSFERASE: 32.4 u/L and 20.5 u/L
  ALBUMIN: 3.42 G/DL and 4.17 G/DL
  ALKALINE PHOSPHATASE: 217.6 u/L and 314.25 u/L
  ASPARTATE AMINOTRANSFERASE: 80.2 u/L and 91.75 u/L
  BLOOD UREA NITROGEN: 14.8 mg/dL and 15.25 mg/dL
  CARBON DIOXIDE: 25.75 mmol/L
  CHLORIDE: 109.8 MEQ/L and 108.25 MEQ/L
  CHOLESTEROL: 58.4 mg/dL and 56 mg/dL
  CREATINE PHOSPHOKINASE: 257.6 u/L and 601.5 u/L
  CREATININE: 0.52 mg/dL and 0.5 mg/dL
  GLUCOSE: 127.2 mg/dL and 121.75 mg/dL
  LACTATE DEHYDROGENASE: 84.6 u/L and 185.75 u/L
  LIPASE: 17 u/L and 8.25 u/L
  PHOSPHORUS: 10.22 mg/dL and 12.03 mg/dL
  POTASSIUM: 6.26 MEQ/L and 5.68 MEQ/L
  SODIUM: 151.2 MEQ/L and 152 MEQ/L
  TOTAL BILIRUBIN: 0.14 mg/dL and 0.3 mg/dL
  TOTAL PROTEIN: 5.84 G/DL and 6.38 G/DL
  URIC ACID: 0.98 mg/dL and 1.82 mg/dL
[5]
  ABSOLUTE BASOPHIL: 120 cells/µL
  ABSOLUTE EOSINOPHIL: 60 cells/µL
  ABSOLUTE LYMPHOCYTE: 7970 cells/µL
  ABSOLUTE MONOCYTE: 180 cells/µL
  ABSOLUTE SEGMENTED NEUTROPHIL: 970 cells/µL
  CARBON DIOXIDE: 24 mmol/L
[6]
  ABSOLUTE BASOPHIL: 110 cells/µL
  ABSOLUTE EOSINOPHIL: 140 cells/µL
  ABSOLUTE LYMPHOCYTE: 11000 cells/µL
  ABSOLUTE MONOCYTE: 270 cells/µL
  ABSOLUTE SEGMENTED NEUTROPHIL: 2010 cells/µL
  BASOPHIL: 0.75%
  EOSINOPHIL: 1.01%
  ERYTHROCYTE COUNT: 8.16 x10E6/uL
  HEMATOCRIT: 47.35%
  HEMOGLOBIN: 15.56 G/DL
  LEUKOCYTE COUNT: 13.61 x10E3/uL
  LYMPHOCYTE: 82.08%
  MEAN CORPUSCULAR HEMOGLOBIN: 19.08 pg
  MEAN CORPUSCULAR HEMOGLOBIN CONCENTRATION: 32.87 G/DL
  MEAN CORPUSCULAR VOLUME: 58.02 fL
  MONOCYTE: 1.93%
  NEUTROPHIL: 13.77%
  PLATELET COUNT: 1300.9 x10E3/uL
  ALANINE AMINOTRANSFERASE: 28.5 u/L
  ALBUMIN: 3.56 G/DL
  ALKALINE PHOSPHATASE: 137.2 u/L
  ASPARTATE AMINOTRANSFERASE: 79.3 u/L
  BLOOD UREA NITROGEN: 16.3 mg/dL
  CHLORIDE: 108.2 MEQ/L
  CHOLESTEROL: 59.4 mg/dL
  CREATINE PHOSPHOKINASE: 132.4 u/L
  CREATININE: 0.68 mg/dL
  GLUCOSE: 127.2 mg/dL
  LACTATE DEHYDROGENASE: 83.6 u/L
  LIPASE: 12.4 u/L
  PHOSPHORUS: 8.3 mg/dL
  POTASSIUM: 5.48 MEQ/L
  SODIUM: 152.3 MEQ/L
  TOTAL BILIRUBIN: 0.18 mg/dL
  TOTAL PROTEIN: 6.53 G/DL
  URIC ACID: 0.96 mg/dL
